The results in this text go back to publication PMC4257840 (Journal of Medicinal Chemistry, 2014).

For this test, the target named is T1, Human recombinant ADAM-17 (Homo sapiens, UniProt P78536).
T1 construct: host or cells: Sf21 insect cells
The test can be described thus: Protease counter-screening: ADAM-17/TACE. It counts as biochemical. The method, then:
Appendix 7. Protease Counter -Screening
Protease counter-screeni ng was performed using the methods described below. Initial screening was conducted in duplicate using a single test substance concentration of 10 µ M .
Additional assays were conducted in replicate for selected pairin gs of test s ubstance and enz yme in order to enable the determination of IC50 values using conventional procedures.
Determination of K i was made using the Batch K i program (Biokin Ltd, Pullman, WA) to derive values from the Morrison equation: […]
MMP-9: Human recombinant MMP-9 proenz yme ex pressed in mammalian cells was activated with APMA for 60 min at 37 °C. […] The amount of MCA-P LG formed was read spectrofluorimetricall y at 340 nm/400 nm.
ADAM-17/TACE: Human recombinant ADAM-17 expressed in Sf21 insect cells was used as enz yme sour ce. […] T he amount of MCA-P LAQA formed w as read spectro fluorimetricall y at 340 nm/400 nm.
Angiotensin converting enzyme: Test compound or vehicle was pre- incubated in modified HEPES buffer pH 7.5 for 15 min at 25 °C with 31 mU/mL angiotensin converting enz yme from rabbit lung. […] The amount of substrate remaining was read spectrophotometricall y at 340 nm and used to deri ve the extent of reaction and its inhibition. […]

T1 sequence (P78536 215-824): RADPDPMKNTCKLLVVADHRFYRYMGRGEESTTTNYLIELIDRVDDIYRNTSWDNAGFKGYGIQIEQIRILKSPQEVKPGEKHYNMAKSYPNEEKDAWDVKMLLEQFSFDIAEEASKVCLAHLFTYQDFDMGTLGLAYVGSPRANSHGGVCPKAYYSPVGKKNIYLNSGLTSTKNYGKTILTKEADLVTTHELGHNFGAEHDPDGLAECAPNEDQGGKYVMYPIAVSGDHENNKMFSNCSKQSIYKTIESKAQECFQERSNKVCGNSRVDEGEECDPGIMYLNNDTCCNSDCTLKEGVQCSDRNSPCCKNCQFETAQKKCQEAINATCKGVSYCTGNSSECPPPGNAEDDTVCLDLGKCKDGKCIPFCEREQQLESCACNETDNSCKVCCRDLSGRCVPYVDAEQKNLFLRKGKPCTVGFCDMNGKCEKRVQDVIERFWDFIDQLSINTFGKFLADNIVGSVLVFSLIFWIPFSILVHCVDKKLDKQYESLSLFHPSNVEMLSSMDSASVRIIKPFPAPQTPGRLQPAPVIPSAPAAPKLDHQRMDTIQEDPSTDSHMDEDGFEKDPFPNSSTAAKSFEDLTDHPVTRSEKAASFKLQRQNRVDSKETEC

Consider `CC(C)[C@H](NC(=O)[C@H](C)NC(=O)[C@@H](NC(=O)c1ccccc1)C(C)(C)C)C(=O)C(=O)NCc1ccccc1` [Compound 38, N-{(S)-1-[(S)-1-((S)-1-Benzylaminooxalyl-2-methyl-propylcarbamoyl)-ethylcarbamoyl]-2,2-dimethyl-propyl}-benzamide], for which the inhibition at 10 µM stood at 0%.
